Assay results published in PubChem BioAssay AID328 (DTP/NCI, 2004).
Several values for one entry are separate records, joined by “and”; a condition that tells them apart may be missing. Equal entries are not always repeated. Inconclusive results and toxic doses are left out.

System: BDF1 mice, P388 leukemia ip, median survival T/C
Experiment: NCI In Vivo Anticancer Drug Screen. Data for tumor model P388 Leukemia (intraperitoneal) in B6D2F1 (BDF1) mice
Details: endpoint: median survival time, higher = longer survival
Procedure, shortened: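 Read-out is survival of treated animals expressed relative to the vehicle group, as a T/C ratio.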

[1] = dose: 25.0 mg/kg/injection, schedule: Q01DX009 (ip), vehicle: saline
[2] = dose: 25.0 mg/kg/injection, schedule: Q04DX003 (ip), vehicle: saline
[3] = dose: 50.0 mg/kg/injection, schedule: Q01DX009 (ip), vehicle: saline
[4] = dose: 50.0 mg/kg/injection, schedule: Q04DX003 (ip), vehicle: saline with Tween-80
[5] = dose: 100.0 mg/kg/injection, schedule: Q04DX003 (ip), vehicle: saline with Tween-80
[6] = dose: 100.0 mg/kg/injection, schedule: Q04DX003 (ip), vehicle: saline
[7] = dose: 100.0 mg/kg/injection, schedule: Q04DX003 (ip), vehicle: Klucel (hydroxypropylcellulose) (HPC)
[8] = dose: 200.0 mg/kg/injection, schedule: Q04DX003 (ip), vehicle: saline with Tween-80
[9] = dose: 400.0 mg/kg/injection, schedule: Q04DX003 (ip), vehicle: saline with Tween-80
[10] = dose: 100.0 mg/kg/injection, schedule: Q01DX009 (ip), vehicle: saline with Tween-80
[11] = dose: 200.0 mg/kg/injection, schedule: Q01DX009 (ip), vehicle: saline with Tween-80
[12] = dose: 12.5 mg/kg/injection, schedule: Q01DX010 (ip), vehicle: carboxymethylcellulose (CMC)
[13] = dose: 25.0 mg/kg/injection, schedule: Q01DX010 (ip), vehicle: carboxymethylcellulose (CMC)
[14] = dose: 50.0 mg/kg/injection, schedule: Q01DX010 (ip), vehicle: carboxymethylcellulose (CMC)
[15] = dose: 25.0 mg/kg/injection, schedule: Q01DX009 (ip), vehicle: saline with Tween-80
[16] = dose: 50.0 mg/kg/injection, schedule: Q01DX009 (ip), vehicle: saline with Tween-80

With `C(COCC1CO1)OCC1CO1` (configuration not stated) the T/C [1] was 154 % of control and 165 % of control, the T/C [2] was 108 % of control and the T/C [3] was 168 % of control and 185 % of control. For the same compound, the T/C [4] was 160 % of control, the T/C (dose: 100.0 mg/kg/injection, schedule: Q01DX009 (ip), vehicle: saline) was 209 % of control and the T/C [5] was 165 % of control. The T/C [6] was 154 % of control.

`CC(=O)Nc1nccs1` was tested, and the T/C (dose: 25.0 mg/kg/injection, schedule: Q01DX009 (ip), vehicle: Klucel (hydroxypropylcellulose) (HPC)) was 104 % of control, the T/C (dose: 25.0 mg/kg/injection, schedule: Q04DX003 (ip), vehicle: Klucel (hydroxypropylcellulose) (HPC)) was 95 % of control and the T/C (dose: 50.0 mg/kg/injection, schedule: Q01DX009 (ip), vehicle: Klucel (hydroxypropylcellulose) (HPC)) was 95 % of control. The T/C (dose: 50.0 mg/kg/injection, schedule: Q04DX003 (ip), vehicle: Klucel (hydroxypropylcellulose) (HPC)) was 91 % of control, the T/C (dose: 100.0 mg/kg/injection, schedule: Q01DX009 (ip), vehicle: Klucel (hydroxypropylcellulose) (HPC)) was 109 % of control and the T/C [7] was 95 % of control.

With `CSC(N)=Nc1ccc(C(=O)O)cc1` the T/C [5] was 100 % of control, the T/C [8] was 104 % of control and the T/C [9] was 95 % of control.

For `CC(=O)CC(C)=O.CC(=O)CC(C)=O.C[CH2][Sn][CH2]C`, the T/C (dose: 12.5 mg/kg/injection, schedule: Q01DX001 (ip), vehicle: Klucel (hydroxypropylcellulose) (HPC)) was 116 % of control.

For `Cc1n(CC(C)C)c2c([n+]1CC(=O)c1ccc([N+](=O)[O-])cc1)C(=O)c1ccccc1C2=O`, the T/C (dose: 1.25 mg/kg/injection, schedule: Q01DX010 (ip), vehicle: saline) was 118 % of control, the T/C (dose: 2.5 mg/kg/injection, schedule: Q01DX010 (ip), vehicle: saline) was 122 % of control and the T/C (dose: 5.0 mg/kg/injection, schedule: Q01DX010 (ip), vehicle: saline) was 104 % of control.

With `COc1ccc(CC2OCCC3c4ccccc4NC23)cc1OC` (configuration not stated) the T/C [5] was 93 % of control, the T/C [8] was 109 % of control and the T/C [9] was 111 % of control.

For `COC1/C=C/OC2(C)Oc3c(C)c(O)c4c(O)c(c(/C=N/N5CCN(Cc6ccccc6)CC5)c(O)c4c3C2=O)NC(=O)C(C)=C/C=C/C(C)C(O)C(C)C(O)C(C)C(OC(C)=O)C1C` (configuration not stated), the T/C [1] was 119 % of control and the T/C [3] was 100 % of control.

`CNc1ccc([N+](=O)[O-])cc1C(=O)OC` was tested, and the T/C [10] was 104 % of control and the T/C [11] was 96 % of control.

`CC(=O)O[C@@H]1C[C@@]2(C)[C@@H]3CC=C4[C@@H](C[C@H](O)C(=O)C4(C)C)[C@]3(C)C(=O)C[C@]2(C)[C@H]1[C@@](C)(O)C(=O)/C=C/C(C)(C)OC(C)=O` was tested, and the T/C [12] was 109 % of control, the T/C [13] was 122 % of control and the T/C [14] was 95 % of control.

For `CN1CCCC1CCNc1nc(C(Cl)(Cl)Cl)nc2ccc(Cl)cc12` (configuration not stated), the T/C [15] was 100 % of control, the T/C [16] was 100 % of control and the T/C [4] was 104 % of control. For the same compound, the T/C [5] was 104 % of control.

With `CCC(=O)Oc1ccc2c(c1)CC[C@@H]1[C@@H]2CC[C@]2(C)C[C@H](OC(=O)CC)C[C@@H]12` the T/C [10] was 100 % of control, the T/C [5] was 95 % of control and the T/C [11] was 118 % of control. The T/C [8] was 100 % of control, the T/C (dose: 400.0 mg/kg/injection, schedule: Q01DX009 (ip), vehicle: saline with Tween-80) was 118 % of control and the T/C [9] was 90 % of control.

With `[O-]/[N+](=C\C=C\c1ccccc1)c1ccccc1` the T/C [7] was 100 % of control, the T/C (dose: 200.0 mg/kg/injection, schedule: Q04DX003 (ip), vehicle: Klucel (hydroxypropylcellulose) (HPC)) was 86 % of control and the T/C (dose: 400.0 mg/kg/injection, schedule: Q04DX003 (ip), vehicle: Klucel (hydroxypropylcellulose) (HPC)) was 90 % of control.

With `Oc1ccc(Cl)c2cccnc12` the T/C [12] was 104 % of control, the T/C [13] was 104 % of control and the T/C [14] was 109 % of control.

In the case of `Cc1csc(NC(=O)Nc2ccc(F)cc2[N+](=O)[O-])n1`, the T/C (dose: 12.5 mg/kg/injection, schedule: Q01DX009 (ip), vehicle: saline with Tween-80) is reported as 110 % of control, the T/C [15] is reported as 88 % of control and the T/C [16] is reported as 120 % of control.

In the case of `COC(=O)C1=C(C(=O)OC)C(C(=O)OC)N2C=C(C)C=CC2=C1C(=O)OC` (configuration not stated), the T/C [16] is reported as 102 % of control, the T/C [10] is reported as 100 % of control and the T/C [11] is reported as 98 % of control.

For `O=C(O)CCc1nc(-c2ccccc2)c(-c2ccccc2)o1`, the T/C [16] was 100 % of control, the T/C [10] was 104 % of control and the T/C [11] was 119 % of control.

For `COc1cc(NS(C)(=O)=O)ccc1Nc1c2ccc([N+](=O)[O-])cc2nc2c(C)c(C)ccc12`, the T/C (dose: 0.29 mg/kg/injection, schedule: Q04DX003 (ip), vehicle: saline with Tween-80) was 112 % of control, the T/C (dose: 0.44 mg/kg/injection, schedule: Q04DX003 (ip), vehicle: saline with Tween-80) was 154 % of control and the T/C (dose: 0.88 mg/kg/injection, schedule: Q01DX009 (ip), vehicle: saline with Tween-80) was 185 % of control. For the same compound, the T/C (dose: 1.0 mg/kg/injection, schedule: Q04DX003 (ip), vehicle: saline with Tween-80) was 154 % of control, the T/C (dose: 1.33 mg/kg/injection, schedule: Q01DX009 (ip), vehicle: saline with Tween-80) was 203 % of control and the T/C (dose: 2.0 mg/kg/injection, schedule: Q01DX009 (ip), vehicle: saline with Tween-80) was 254 % of control. The T/C (dose: 2.66 mg/kg/injection, schedule: Q01DX009 (ip), vehicle: saline with Tween-80) was 269 % of control, the T/C (dose: 3.0 mg/kg/injection, schedule: Q01DX009 (ip), vehicle: saline with Tween-80) was 273 % of control and the T/C (dose: 4.0 mg/kg/injection, schedule: Q01DX009 (ip), vehicle: saline with Tween-80) was 272 % of control. The T/C (dose: 6.0 mg/kg/injection, schedule: Q01DX009 (ip), vehicle: saline with Tween-80) was 211 % of control, the T/C (dose: 9.0 mg/kg/injection, schedule: Q01DX009 (ip), vehicle: saline with Tween-80) was 295 % of control and the T/C (dose: 22.0 mg/kg/injection, schedule: Q04DX003 (ip), vehicle: saline with Tween-80) was 236 % of control and 281 % of control. The T/C [2] was 260 % of control, the T/C (dose: 33.0 mg/kg/injection, schedule: Q04DX003 (ip), vehicle: saline with Tween-80) was 272 % of control and 281 % of control and the T/C [4] was 272 % of control and 281 % of control. For the same compound, the T/C (dose: 50.0 mg/kg/injection, schedule: Q04DX003 (ip), vehicle: saline) was 230 % of control, the T/C (dose: 75.0 mg/kg/injection, schedule: Q04DX003 (ip), vehicle: saline with Tween-80) was 272 % of control and 122 % of control and the T/C [6] was 95 % of control.

With `O=C1c2ccccc2C(=O)c2cc(S(=O)(=O)Cl)ccc21` the T/C (dose: 100.0 mg/kg/injection, schedule: Q01DX001 (ip), vehicle: saline) was 109 % of control, the T/C (dose: 200.0 mg/kg/injection, schedule: Q01DX001 (ip), vehicle: saline) was 109 % of control and the T/C (dose: 400.0 mg/kg/injection, schedule: Q01DX001 (ip), vehicle: saline) was 90 % of control.

In the case of `CC1(C)N=C(N)N=C(N)N1c1ccc(CNC(=O)Nc2ccc(S(=O)(=O)F)cc2)c(Cl)c1`, the T/C (dose: 16.5 mg/kg/injection, schedule: Q01DX009 (ip), vehicle: saline with Tween-80) is reported as 176 % of control, the T/C [15] is reported as 188 % of control and the T/C (dose: 37.5 mg/kg/injection, schedule: Q01DX009 (ip), vehicle: saline with Tween-80) is reported as 185 % of control. For the same compound, the T/C (dose: 88.0 mg/kg/injection, schedule: Q04DX003 (ip), vehicle: saline with Tween-80) was 186 % of control and the T/C (dose: 132.0 mg/kg/injection, schedule: Q04DX003 (ip), vehicle: saline with Tween-80) was 157 % of control.

With `N=C(N)SC(c1ccccc1)c1ccccc1` the T/C (dose: 100.0 mg/kg/injection, schedule: Q01DX001 (ip), vehicle: Klucel (hydroxypropylcellulose) (HPC)) was 100 % of control and the T/C (dose: 200.0 mg/kg/injection, schedule: Q01DX001 (ip), vehicle: Klucel (hydroxypropylcellulose) (HPC)) was 104 % of control.

With `O=C(c1ccccc1)C(SC(C(=O)c1ccccc1)c1ccccc1)c1ccccc1` (configuration not stated) the T/C [16] was 98 % of control, the T/C [10] was 97 % of control and the T/C [11] was 91 % of control.

For `CCCCCCCCC(=O)c1c(OC)oc(C=O)cc1=O`, the T/C (dose: 2.34 mg/kg/injection, schedule: Q01DX009 (ip), vehicle: Klucel (hydroxypropylcellulose) (HPC)) was 96 % of control, the T/C (dose: 4.69 mg/kg/injection, schedule: Q01DX009 (ip), vehicle: Klucel (hydroxypropylcellulose) (HPC)) was 112 % of control and 118 % of control and the T/C (dose: 9.38 mg/kg/injection, schedule: Q01DX009 (ip), vehicle: Klucel (hydroxypropylcellulose) (HPC)) was 104 % of control and 108 % of control. For the same compound, the T/C (dose: 18.7 mg/kg/injection, schedule: Q01DX009 (ip), vehicle: Klucel (hydroxypropylcellulose) (HPC)) was 105 % of control, the T/C (dose: 18.75 mg/kg/injection, schedule: Q01DX009 (ip), vehicle: Klucel (hydroxypropylcellulose) (HPC)) was 96 % of control and the T/C (dose: 37.5 mg/kg/injection, schedule: Q01DX009 (ip), vehicle: Klucel (hydroxypropylcellulose) (HPC)) was 93 % of control and 114 % of control and 121 % of control.
